The target of data set [1] is T1, human CYP2C19 (Homo sapiens, UniProt P33261).
In data set [2] the target is human CYP2D6 (Homo sapiens, UniProt P10635).
In data set [3] the target is CYP3A4 (Homo sapiens, UniProt P08684).
For data set [4], the target named is T2, human CYP1A2 (Homo sapiens, UniProt P05177).
T2 sequence (P05177 1-516): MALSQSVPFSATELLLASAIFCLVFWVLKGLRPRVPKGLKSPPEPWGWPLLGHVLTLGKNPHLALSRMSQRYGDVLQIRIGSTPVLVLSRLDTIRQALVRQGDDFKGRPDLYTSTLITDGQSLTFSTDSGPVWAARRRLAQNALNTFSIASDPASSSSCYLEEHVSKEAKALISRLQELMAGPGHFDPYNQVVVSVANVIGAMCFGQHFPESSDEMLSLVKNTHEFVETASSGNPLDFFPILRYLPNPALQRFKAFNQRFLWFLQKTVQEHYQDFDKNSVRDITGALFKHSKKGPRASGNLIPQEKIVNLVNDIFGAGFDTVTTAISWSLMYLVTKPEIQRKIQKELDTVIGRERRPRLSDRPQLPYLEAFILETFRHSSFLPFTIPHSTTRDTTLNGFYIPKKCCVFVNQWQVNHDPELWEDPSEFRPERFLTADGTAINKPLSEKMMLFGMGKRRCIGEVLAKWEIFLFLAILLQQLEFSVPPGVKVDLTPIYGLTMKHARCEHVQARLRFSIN
The experiment in a line: biochemical.

Data set [5] has as its target T3, human CYP2C9 (Homo sapiens, UniProt P11712). Briefly: biochemical.
Data set [6] deals with T1, human CYP2C19. The experiment in a line: biochemical.
The target in data set [7] is T2, human CYP1A2.
In data set [8] the target is T3, human CYP2C9.
Setting [9] is: CYP1A2 AC50 (half-maximal activity concentration).
[10] abbreviates: CYP2C9 AC50 (half-maximal activity concentration).
[11] abbreviates: CYP2C19 AC50 (half-maximal activity concentration).

Where two headings read alike, the source gives them in different places.

T1 sequence (P33261 whole entry): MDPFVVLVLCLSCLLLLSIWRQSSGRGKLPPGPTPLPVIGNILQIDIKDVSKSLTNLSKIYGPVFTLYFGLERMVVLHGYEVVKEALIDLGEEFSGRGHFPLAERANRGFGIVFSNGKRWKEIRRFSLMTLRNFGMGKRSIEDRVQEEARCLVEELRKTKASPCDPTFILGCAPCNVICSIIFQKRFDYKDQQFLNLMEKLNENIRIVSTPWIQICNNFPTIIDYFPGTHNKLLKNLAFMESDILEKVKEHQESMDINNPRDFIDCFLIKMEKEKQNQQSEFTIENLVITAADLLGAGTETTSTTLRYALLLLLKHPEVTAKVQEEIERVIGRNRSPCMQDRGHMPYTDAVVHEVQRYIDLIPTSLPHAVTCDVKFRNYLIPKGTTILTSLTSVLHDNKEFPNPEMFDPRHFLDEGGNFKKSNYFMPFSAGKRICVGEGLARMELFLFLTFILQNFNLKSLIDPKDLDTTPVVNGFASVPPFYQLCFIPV
Chain of CYP3A4 (P08684 whole entry): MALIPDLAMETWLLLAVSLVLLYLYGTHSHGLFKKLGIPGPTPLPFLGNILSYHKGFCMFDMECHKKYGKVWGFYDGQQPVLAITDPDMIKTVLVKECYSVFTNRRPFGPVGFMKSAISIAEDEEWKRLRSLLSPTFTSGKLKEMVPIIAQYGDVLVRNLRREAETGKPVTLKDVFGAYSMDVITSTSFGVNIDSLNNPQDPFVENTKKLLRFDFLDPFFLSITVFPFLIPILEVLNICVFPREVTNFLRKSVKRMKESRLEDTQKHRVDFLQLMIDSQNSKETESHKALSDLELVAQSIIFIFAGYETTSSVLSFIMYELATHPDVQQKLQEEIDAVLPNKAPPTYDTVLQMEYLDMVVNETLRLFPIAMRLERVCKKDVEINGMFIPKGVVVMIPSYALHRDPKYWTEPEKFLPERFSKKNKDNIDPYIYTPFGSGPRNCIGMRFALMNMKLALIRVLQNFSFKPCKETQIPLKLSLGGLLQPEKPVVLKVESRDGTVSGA
T3 sequence (P11712 whole entry): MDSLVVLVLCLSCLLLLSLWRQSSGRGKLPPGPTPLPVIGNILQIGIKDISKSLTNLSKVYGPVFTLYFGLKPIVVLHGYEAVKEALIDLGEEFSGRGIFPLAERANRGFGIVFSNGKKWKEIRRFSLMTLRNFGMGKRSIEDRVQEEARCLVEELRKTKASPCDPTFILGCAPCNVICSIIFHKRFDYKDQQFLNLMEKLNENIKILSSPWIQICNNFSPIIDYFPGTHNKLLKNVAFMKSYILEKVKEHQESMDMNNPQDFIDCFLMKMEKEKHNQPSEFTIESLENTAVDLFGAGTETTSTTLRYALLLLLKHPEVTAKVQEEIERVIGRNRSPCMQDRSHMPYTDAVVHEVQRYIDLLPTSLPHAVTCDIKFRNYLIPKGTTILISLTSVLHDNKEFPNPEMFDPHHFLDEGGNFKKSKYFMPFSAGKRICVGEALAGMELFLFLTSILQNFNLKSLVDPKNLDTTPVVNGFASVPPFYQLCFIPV
Chain of human CYP2D6 (P10635 whole entry): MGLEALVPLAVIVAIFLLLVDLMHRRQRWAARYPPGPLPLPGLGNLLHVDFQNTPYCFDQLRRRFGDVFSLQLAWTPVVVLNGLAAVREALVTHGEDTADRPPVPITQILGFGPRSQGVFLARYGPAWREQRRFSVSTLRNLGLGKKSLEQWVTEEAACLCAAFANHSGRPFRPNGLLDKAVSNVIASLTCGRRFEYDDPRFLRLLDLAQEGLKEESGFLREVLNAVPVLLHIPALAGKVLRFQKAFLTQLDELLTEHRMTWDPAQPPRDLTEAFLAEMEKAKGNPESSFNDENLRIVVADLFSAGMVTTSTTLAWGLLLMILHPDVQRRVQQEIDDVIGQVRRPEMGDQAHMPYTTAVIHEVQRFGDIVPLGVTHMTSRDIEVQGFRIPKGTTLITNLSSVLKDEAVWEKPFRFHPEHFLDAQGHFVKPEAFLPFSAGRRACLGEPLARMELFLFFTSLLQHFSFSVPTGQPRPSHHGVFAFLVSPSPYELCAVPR

For `Oc1cc(Cl)c(Cl)cc1Cl` [2,4,5-Trichlorophenol], in data set [1], the “CYP2C19 AC50 (half-maximal activity concentration)” value (from here on “CYP2C19 AC50”) is on record as “Inconclusive inhibitor”. Moreover, the “CYP2D6 AC50 (half-maximal activity concentration)” value (from here on “CYP2D6 AC50”) in data set [2] was “Inactive”. The “CYP3A4 AC50 (half-maximal activity concentration)” value (shortened to “CYP3A4 AC50”) in data set [3] was “Inactive”. Also, the AC50 amounted to 20.8 µM in data set [4] (setting [9]) and 22.4 µM in data set [5] (setting [10]).
Regarding `Oc1cc(Cl)ccc1Cl` [2,5-Dichlorophenol], the “CYP2C19 AC50” value in data set [1] is on record as “Inconclusive inhibitor”. For the same compound, the “CYP2D6 AC50” value in data set [2] is “Inactive”. In addition, the “CYP3A4 AC50” value in data set [3] is “Inactive”. Further, the AC50 stood at 33.9 µM in data set [4] (setting [9]) and 32.8 µM in data set [5] (setting [10]).
For the compound `Nc1c(Br)cc([N+](=O)[O-])cc1Br` [2,6-Dibromo-4-nitroaniline], the “CYP2D6 AC50” value in data set [2] is on record as “Inactive”. The “CYP3A4 AC50” value in data set [3] is recorded as “Inactive”. For the same compound, the AC50 in data set [4] (setting [9]) stood at 1.27 µM; in data set [5] (setting [10]), 18.1 µM; in data set [6] (setting [11]), 43.1 µM.
Turning to `CCC(C)c1ccccc1O` (stereo not shown) [2-(Butan-2-yl)phenol], the “CYP2D6 AC50” value in data set [2] is recorded as “Inactive”. In addition, the “CYP3A4 AC50” value in data set [3] is recorded as “Inconclusive inhibitor”. Besides, the AC50 in data set [4] (setting [9]) was 38.5 µM; in data set [5] (setting [10]), 53.2 µM; in data set [6] (setting [11]), 9.46 µM.
Consider `CCOc1ccccc1C(N)=O` [2-Ethoxybenzamide], for which the “CYP2C19 AC50” value in data set [1] is reported as “Inactive”. For the same compound, in data set [2], the “CYP2D6 AC50” value is listed as “Inactive”. Moreover, the “CYP3A4 AC50” value in data set [3] is given as “Inactive”. For the same compound, the AC50 in data set [4] is 16.8 ± 1.09 µM; in data set [5] it was 31 ± 3.57 µM.
As for `COc1cccc(O)c1` [3-Methoxyphenol], the “CYP2C19 AC50” value in data set [1] is given as “Inactive”. The “CYP2D6 AC50” value in data set [2] was “Inactive”. In data set [3], the “CYP3A4 AC50” value is “Inactive”. Further, the AC50 in data set [4] came to 49.3 µM; in data set [5] it was 40.4 µM.
Consider `O=[N+]([O-])c1ccc(O)cc1C(F)(F)F` [3-Trifluoromethyl-4-nitrophenol], for which the “CYP2D6 AC50” value in data set [2] is on record as “Inconclusive inhibitor”. In addition, in data set [3], the “CYP3A4 AC50” value is given as “Inconclusive inhibitor”. The values for the concentration at half-maximal activity (AC50) in data set [4] (setting [9]), in data set [5] (setting [10]) and in data set [6] (setting [11]) were 56.6 µM, 34.1 µM and 27.9 µM, respectively.
Consider `CC(C)(C)c1cccc(O)c1` [3-tert-Butylphenol], for which the “CYP1A2 AC50 (half-maximal activity concentration)” value (“CYP1A2 AC50” below) in data set [7] was “Inconclusive inhibitor”. Besides, the “CYP2C9 AC50 (half-maximal activity concentration)” value (shortened to “CYP2C9 AC50”) in data set [8] is listed as “Inconclusive inhibitor”. The “CYP2D6 AC50” value in data set [2] is reported as “Inactive”. The “CYP3A4 AC50” value in data set [3] is “Inactive”. The compound further registered an AC50 in data set [6] of 23.9 µM.
As to `CCC(C)c1ccc(O)cc1` (stereo not shown) [4-(Butan-2-yl)phenol], the “CYP2D6 AC50” value in data set [2] is given as “Inactive”. Moreover, in data set [3], the “CYP3A4 AC50” value was “Inactive”. Moreover, the values for the AC50 in data set [4] (setting [9]), in data set [5] (setting [10]) and in data set [6] (setting [11]) were 34.6 µM, 33.4 µM and 3.47 µM, respectively.
Regarding `CCN(CC)c1ccc(C=O)cc1` [4-(Diethylamino)benzaldehyde], in data set [2], the “CYP2D6 AC50” value is given as “Inconclusive inhibitor”. Moreover, the “CYP3A4 AC50” value in data set [3] was “Inactive”. In addition, the AC50 in data set [4] came to 5.66 µM; in data set [5], 20.1 µM; in data set [6] it was 14.3 µM.
With `Cc1cc(O)cc(C)c1Cl` [4-Chloro-3,5-dimethylphenol], the “CYP2C19 AC50” value in data set [1] was “Inconclusive inhibitor”. For the same compound, the “CYP2D6 AC50” value in data set [2] is listed as “Inactive”. For the same compound, the “CYP3A4 AC50” value in data set [3] was “Inactive”. The AC50 stood at 14.2 µM in data set [4] (setting [9]) and 17.4 µM in data set [5] (setting [10]).
On to `Cc1cc(=O)oc2cc(O)ccc12` [4-Methylumbelliferone], for which the “CYP2C19 AC50” value in data set [1] is “Inactive”. Also, in data set [2], the “CYP2D6 AC50” value is “Inactive”. For the same compound, in data set [3], the “CYP3A4 AC50” value is listed as “Inactive”. For the same compound, the results for the AC50 in data set [4] (setting [9]) and in data set [5] (setting [10]) were 28.6 µM and 14.6 µM, respectively.
`CC(C)(C)c1ccc(OC(=O)c2ccccc2O)cc1` [4-tert-Butylphenyl salicylate]: the “CYP2D6 AC50” value in data set [2] is on record as “Inactive”. In data set [3], the “CYP3A4 AC50” value was “Inactive”. Moreover, the AC50 in data set [4] stood at 40.1 µM; in data set [5], 24.7 µM; in data set [6], 14.2 µM.
As for `O=[N+]([O-])c1ccc2c3c(cccc13)CC2` [5-Nitroacenaphthene], the “CYP2D6 AC50” value in data set [2] is “Inactive”. The “CYP3A4 AC50” value in data set [3] is given as “Inconclusive inhibitor”. Moreover, the results for the AC50 in data set [4] (setting [9]), in data set [5] (setting [10]) and in data set [6] (setting [11]) were 2.25 µM, 8.98 µM and 33.6 µM, respectively.
On to `C[C@]12CC[C@@H]3c4ccc(O)cc4CC[C@H]3[C@@H]1CC[C@@H]2O` [17beta-Estradiol], for which the “CYP2D6 AC50” value in data set [2] was “Inactive”. Moreover, the “CYP3A4 AC50” value in data set [3] is listed as “Inconclusive activator”. The AC50 in data set [4] (setting [9]) was found to be 29.1 µM; in data set [5] (setting [10]) it was 5.72 µM; in data set [6] (setting [11]) it was 16.8 µM.
Turning to `Oc1ccc(Cc2ccc(O)cc2)cc1` [Bis(4-hydroxyphenyl)methane], in data set [1], the “CYP2C19 AC50” value is “Inconclusive inhibitor”. For the same compound, the “CYP2D6 AC50” value in data set [2] was “Inconclusive inhibitor”. The “CYP3A4 AC50” value in data set [3] is “Inconclusive inhibitor”. The AC50 was found to be 38.8 µM in data set [4] (setting [9]) and 11.8 µM in data set [5] (setting [10]).
With `COC(=O)Nc1nc2ccc(C(=O)c3ccccc3)cc2[nH]1` [Mebendazole], the “CYP2C19 AC50” value in data set [1] is given as “Inactive”. Moreover, the “CYP2D6 AC50” value in data set [2] is reported as “Inactive”. In data set [3], the “CYP3A4 AC50” value is reported as “Inactive”. Moreover, the AC50 amounted to 14 µM in data set [4] (setting [9]) and 3.89 µM in data set [5] (setting [10]).
As to `COC(=O)c1ccc(O)cc1` [Methylparaben], the “CYP2C19 AC50” value in data set [1] is “Inactive”. The “CYP2D6 AC50” value in data set [2] was “Inactive”. Besides, in data set [3], the “CYP3A4 AC50” value is reported as “Inactive”. In addition, the AC50 in data set [4] (setting [9]) is 20.8 µM; in data set [5] (setting [10]), 17.4 µM.
Turning to `COC(=O)Nc1nc2ccc(C(=O)c3cccs3)cc2[nH]1` [Nocodazole], the “CYP2C19 AC50” value in data set [1] is listed as “Inconclusive inhibitor”. In data set [2], the “CYP2D6 AC50” value was “Inconclusive inhibitor”. In addition, the “CYP3A4 AC50” value in data set [3] is recorded as “Inactive”. In addition, the AC50 in data set [4] (setting [9]) was found to be 15.2 µM; in data set [5] (setting [10]) it was 4.43 µM.
As to `CCNc1nc(Cl)nc(NCC)n1` [Simazine], in data set [1], the “CYP2C19 AC50” value is “Inactive”. In data set [2], the “CYP2D6 AC50” value is reported as “Inconclusive inhibitor”. Further, the “CYP3A4 AC50” value in data set [3] is listed as “Inactive”. In addition, the AC50 came out at 7.9 µM in data set [4] (setting [9]) and 5.09 µM in data set [5] (setting [10]).
Take `C[C@H](CSC(=O)c1ccccc1)C(=O)N1C[C@@H](Sc2ccccc2)C[C@H]1C(=O)O` [Zofenopril]: in data set [7], the “CYP1A2 AC50” value was “Inactive”. In addition, the “CYP2C9 AC50” value in data set [8] is “Inactive”. Moreover, in data set [2], the “CYP2D6 AC50” value is “Inactive”. Moreover, in data set [3], the “CYP3A4 AC50” value is listed as “Inactive”. Further, the AC50 in data set [6] (setting [11]) is 1.71 µM.
For `CCCCC/C(=C\c1ccccc1)CO` [alpha-Amylcinnamyl alcohol], the AC50 in data set [7] came to 3.72 µM; in data set [8] it was 36.6 µM; in data set [1], 1.66 µM; in data set [3] it was 13.7 µM. In data set [2], the “CYP2D6 AC50” value is “Inconclusive inhibitor”.
`CC1(C)[C@H](C(=O)OCc2cccc(Oc3ccccc3)c2)[C@@H]1C=C(Cl)Cl` [cis-Permethrin in cyclohexane]: the “CYP1A2 AC50” value in data set [7] is reported as “Inactive”. In addition, in data set [8], the “CYP2C9 AC50” value was “Inactive”. Besides, the “CYP2C19 AC50” value in data set [1] was “Inactive”. In data set [2], the “CYP2D6 AC50” value was “Inactive”. Besides, in data set [3], the “CYP3A4 AC50” value is “Inactive”.
As for `CC(C)(C)c1ccc(OP(=O)(Oc2ccccc2)Oc2ccccc2)cc1` [tert-Butylphenyl diphenyl phosphate], the AC50 in data set [7] was found to be 18 µM; in data set [8] it was 5.93 µM; in data set [1], 5.26 µM; in data set [3] it was 8.02 µM. Besides, the “CYP2D6 AC50” value in data set [2] is listed as “Inactive”.
As for Mancozeb, the AC50 was found to be 14.9 µM in data set [7], 3.48 µM in data set [8], 4.72 µM in data set [1] and 5.17 µM in data set [3]. In addition, the “CYP2D6 AC50” value in data set [2] is reported as “Inconclusive inhibitor”.
On to Naphthenic acids, for which the AC50 was found to be 59.4 µM in data set [7], 36.4 µM in data set [8], 46.4 µM in data set [1] and 84.8 µM in data set [3]. Also, in data set [2], the “CYP2D6 AC50” value is on record as “Inactive”.

What is called AC50 is the midpoint of the concentration-response curve, whichever way the signal moves. Low values mean greater potency, high ones weaker potency.

These data come from paper PMC12155096 (International Journal of Molecular Sciences, 2025).
